Turning to `Cc1cccc2c1C(=O)N(C1(C)CCC(=O)NC1=O)C2=O` (stereo not drawn) [Example 10, 4-Methyl-2-(2,6-dioxo-3-methyl-(3-piperidyl))isoindoline-1,3-dione], the melting point – broadly, the temperature of the solid-liquid transition – fell in the range of 248 to 250 °C. With `CCc1cccc2c1C(=O)N(C1CCC(=O)NC1=O)C2=O` (stereo not drawn) [Example 6, 2-(2,6-Dioxo(3-piperidyl))-4-ethylisoindoline-1,3-dione] the figure was 235 to 236.5 °C; with `CN(C)c1cccc2c1C(=O)N(C1CCC(=O)NC1=O)C2=O` (stereo not drawn) [Example 8, 4-Dimethylamino-2-(2,6-dioxo(3-piperidyl))isoindoline-1,3-dione], 214.5 to 216.5 °C.

These data come from patent publication US7820697B2, “Compositions and method for reducing TNFα levels” (Celgene Corporation, priority 1998, dated 2010).
